Results taken from patent US9283196B1, “Cycloalkyl-diamines for CNS disorders” (MediSynergics, LLC, priority 2013, dated 2016).

Experiments:
[1] = target: kappa opioid receptors (KOR) (Homo sapiens, UniProt P41145); experiment: kappa opioid receptor (KOR) Ki determination by NIMH PDSP; assay type: binding
Method: (§1) The compounds from the above Examples were tested for activity vs. kappa opioid receptors (KOR) and for Sigma-1 activity. Ki determinations were generously provided by the National Institute of Mental Health's Psychoactive Drug Screening Program (PDSP), Contract # HHSN-271-2013-00017-C (NIMH PDSP). The NIMH PDSP is Directed by Bryan L. Roth MD, PhD at the University of North Carolina at Chapel Hill and Project Officer Jamie Driscoll at NIMH, Bethesda Md. U.S.A. Procedures employed by the PDSP are described in the NIMH PDSP Assay Protocol Book, Version II.

[2] = target: Sigma-1; experiment: Sigma-1 Ki determination by NIMH PDSP; assay type: binding
Method: as §1

Chain of kappa opioid receptors (KOR) (P41145 whole entry): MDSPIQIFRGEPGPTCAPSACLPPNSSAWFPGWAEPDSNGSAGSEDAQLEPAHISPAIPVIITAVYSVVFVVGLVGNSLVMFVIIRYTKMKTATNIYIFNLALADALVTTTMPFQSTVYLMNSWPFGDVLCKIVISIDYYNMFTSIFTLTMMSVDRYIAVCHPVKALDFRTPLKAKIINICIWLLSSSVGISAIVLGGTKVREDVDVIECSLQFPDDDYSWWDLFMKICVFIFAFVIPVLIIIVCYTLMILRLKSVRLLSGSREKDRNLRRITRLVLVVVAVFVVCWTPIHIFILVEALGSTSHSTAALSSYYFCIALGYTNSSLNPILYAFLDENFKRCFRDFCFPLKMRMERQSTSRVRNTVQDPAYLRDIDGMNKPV

SMILES	Ki [1] [nM]	Ki [2] [nM]
CN[C@@]1(c2ccccc2Cl)CCCC[C@H]1NCCCn1ccnc1 (relative stereo) [Example 12b, Cis-1-(2-chlorophenyl)-N^2-(3-(1-imidazolyl)-propyl)-N^1-methylcyclohexane-1,2-diamine]	> 1000	231
CN[C@]1(c2ccccc2Cl)CCCC[C@H]1NCCCc1ccccc1 (relative stereo) [Example 15a, Trans-1-(2-chlorophenyl)-N^2-(3-phenylpropyl)-N^1-methylcyclohexane-1,2-diamine]	526	2260
CN[C@@]1(c2ccccc2Cl)CCCC[C@H]1NCCCc1ccccc1 (relative stereo) [Example 15b, Cis-1-(2-chlorophenyl)-N^2-(3-phenylpropyl)-N^1-methylcyclohexane-1,2-diamine]	139	177
CN[C@@]1(c2ccccc2Cl)CCCC[C@H]1NCCCN1CCOCC1 (relative stereo) [Example 16b]	798	17
CN[C@]1(c2ccccc2Cl)CCCC[C@H]1NCCCN1CCN(C)CC1 (relative stereo) [Example 17a]	> 1000	19
CN[C@@]1(c2ccccc2Cl)CCCC[C@H]1NCCCN1CCN(C)CC1 (relative stereo) [Example 17b]	> 1000	72
CN[C@@]1(c2ccccc2Cl)CCCC[C@H]1NC1CCCCC1 (relative stereo) [Example 18b, Cis-1-(2-chlorophenyl)-N^2-cyclohexyl-N^1-methylcyclohexane-1,2-diamine]	608	–
